According to patent US6518318B1, “Stimulating transport of glucose into animal tissue by the administration of pinitol” (priority 1999, dated 2003):

Legend:
L6 Myoblasts = assay: Glucose uptake (glucose transport) in cell culture; format: cell-based; conditions: for GLUCOSE TRANSPORT: Table 3, control 151
Method: Glucose transport was tested and measured in accordance with the protocol set forth in Amira Kip et al., Induction of Sugar Uptake Response to Insulin by Serum Depletion in Fusing L6 Myoblasts, American Journal of Physiology, Vol. 247, No. 3, Part 1 (September 1984), herein incorporated by reference, except that the cell culture was preincubated for only 2 hours and the cells treated with varying concentrations of pinitol, insulin or a combination thereof as set forth in Tables One through Three. The raw data, in terms of “counts per minute” as measured with a scintillation counter, is provided in Tables One and Two, while calculated data, in terms of “pmol min^−1 mg protein^−1,” is provided in Table Three.

cells = assay: Glycogen formation (14-C glucose incorporation into ethanol-precipitable glycogen); format: cell-based
Method: The method for glycogen incorporation is similar to that of J. Berger and N. S. Hayes, Anal Biochem. 261: 159-163 (1998), one of several standard references for radiolabeled (14-C) glucose incorporation into ethanol-precipitable glycogen. Into each well was added 1.25 mil of 1% TritonX100. The wells were then placed on a rotating agitator for 30 minutes to dissolve the cells. A 1 ml sample was removed from each well and placed in a 10 ml plastic tube. Into each sample was added 1 ml of a solution containing 18% trichloroacetic acid and 2 mg/ml of glycogen (added as carrier). The treated samples were placed on ice for 20 minutes and then centrifuged for 10 minutes at 10,000 RPM with the supernatant transferred to new plastic tubes. The remaining solids were washed by adding 0.3 ml of the trichloracetic acid-glycogen solution to the pellet, and centrifuged again as before. The combined supernatants were added to 4 ml of ice cold ethanol and 0.25 ml of 2% sodium sulphate (to help precipitate glycogen, as in L. Y. Hung and L. A. Menahan, Biochemical Medicine, Vol. 24: 356-360 (1980)). This was left overnight at 4° C. The precipitate was collected the next day by centrilugation at 10,000 RPM for 10 min. The precipitate was redisolved in water (2 ml) and reprecipitated as before with ethanol and sodium sulphate. The precipitate was dissolved in water, added to scintillation fluid, and radioactivity determined.

[1] = Experiment Two, administered alone, at higher concentrations

CO[C@H]1[C@H](O)[C@@H](O)[C@@H](O)[C@H](O)[C@@H]1O [Pinitol]
stimulation of glucose transport (conclusion) (L6 Myoblasts; [1]): significant stimulation in glucose transport
COUNTS PER MINUTE (glucose uptake) (L6 Myoblasts; Table 1, Pinitol 0.14 mM, raw data, control 5185): 5221 counts per minute
COUNTS PER MINUTE (glucose uptake) (L6 Myoblasts; Table 1, Pinitol 1.44 mM, raw data, control 5185): 6009 counts per minute
COUNTS PER MINUTE (glucose uptake) (L6 Myoblasts; Table 2, Pinitol 1.0 mM, control 3178): 6007 counts per minute
GLUCOSE TRANSPORT (L6 Myoblasts; Pinitol 0.14 mM, calculated data): 155 pmol · min^−1 · mg protein^−1
stimulation of glucose transport (conclusion) (L6 Myoblasts; alone, higher concentrations (e.g., 1.44 mM)): significant stimulation in glucose transport
stimulation of glucose transport (conclusion) (L6 Myoblasts; alone, low concentrations (e.g., 0.14 mM)): does not meaningfully stimulate glucose transport
GLYCOGEN FORMATION 1st Set (cells; Table 4, Pinitol 1.4 mM): 68.36 nmol/min/mg
GLYCOGEN FORMATION 2nd Set (cells; Table 4, Pinitol 1.4 mM): 79.08 nmol/min/mg
GLYCOGEN FORMATION 3rd Set (cells; Table 4, Pinitol 1.4 mM): 64.37 nmol/min/mg
GLYCOGEN FORMATION Average (cells; Table 4, Pinitol 1.4 mM, control 52.44 ± 4.58): 70.60 ± 7.61 nmol/min/mg
GLYCOGEN FORMATION 1st Set (cells; Table 4, Pinitol 144.0 mM): 57.75 nmol/min/mg
GLYCOGEN FORMATION 2nd Set (cells; Table 4, Pinitol 144.0 mM): 83.14 nmol/min/mg
GLYCOGEN FORMATION 3rd Set (cells; Table 4, Pinitol 144.0 mM): 64.24 nmol/min/mg
GLYCOGEN FORMATION Average (cells; Table 4, Pinitol 144.0 mM, control 52.44 ± 4.58): 68.38 ± 13.19 nmol/min/mg
GLYCOGEN FORMATION 1st Set (cells; Table Five, Pinitol 1.4 mM): 102.40 nmol/min/mg
GLYCOGEN FORMATION 2nd Set (cells; Table Five, Pinitol 1.4 mM): 117.18 nmol/min/mg
GLYCOGEN FORMATION 3rd Set (cells; Table Five, Pinitol 1.4 mM): 183.05 nmol/min/mg
GLYCOGEN FORMATION 4th Set (cells; Table Five, Pinitol 1.4 mM): 113.15 nmol/min/mg
GLYCOGEN FORMATION 5th Set (cells; Table Five, Pinitol 1.4 mM): 124.64 nmol/min/mg
GLYCOGEN FORMATION 6th Set (cells; Table Five, Pinitol 1.4 mM): 158.40 nmol/min/mg
GLYCOGEN FORMATION Average (cells; Table Five, Pinitol 1.4 mM, control 130.18 ± 20.87): 133.14 ± 30.99 nmol/min/mg
GLYCOGEN FORMATION 1st Set (cells; Table Five, Pinitol 144 mM): 123.03 nmol/min/mg
GLYCOGEN FORMATION 2nd Set (cells; Table Five, Pinitol 144 mM): 211.04 nmol/min/mg
GLYCOGEN FORMATION 3rd Set (cells; Table Five, Pinitol 144 mM): 146.53 nmol/min/mg
GLYCOGEN FORMATION 4th Set (cells; Table Five, Pinitol 144 mM): 192.74 nmol/min/mg
GLYCOGEN FORMATION 5th Set (cells; Table Five, Pinitol 144 mM): 97.05 nmol/min/mg
GLYCOGEN FORMATION 6th Set (cells; Table Five, Pinitol 144 mM): 199.85 nmol/min/mg
GLYCOGEN FORMATION Average (cells; Table Five, Pinitol 144 mM, control 130.18 ± 20.87): 161.71 ± 46.39 nmol/min/mg
stimulation of glycogen formation (conclusion) (cells; administered alone): significant stimulation in glycogen formation

Insulin: insulin, used to treat the cells alone or with pinitol as comparison
stimulation of glucose transport (conclusion) (L6 Myoblasts; [1]): significant stimulation in glucose transport
COUNTS PER MINUTE (glucose uptake) (L6 Myoblasts; Table 2, Insulin 10^−3 mM, control 3178): 4477 counts per minute
GLUCOSE TRANSPORT (L6 Myoblasts; Insulin 10^−5 mM): 200 pmol · min^−1 · mg protein^−1
GLYCOGEN FORMATION 1st Set (cells; Table 4, Insulin 10^−6 mM): 136.27 nmol/min/mg
GLYCOGEN FORMATION 2nd Set (cells; Table 4, Insulin 10^−6 mM): 96.14 nmol/min/mg
GLYCOGEN FORMATION 3rd Set (cells; Table 4, Insulin 10^−6 mM): 212.09 nmol/min/mg
GLYCOGEN FORMATION Average (cells; Table 4, Insulin 10^−6 mM, control 52.44 ± 4.58): 148.17 ± 58.89 nmol/min/mg
GLYCOGEN FORMATION 1st Set (cells; Table 4, Insulin 10^−8 mM): 68.45 nmol/min/mg
GLYCOGEN FORMATION 2nd Set (cells; Table 4, Insulin 10^−8 mM): 75.36 nmol/min/mg
GLYCOGEN FORMATION Average (cells; Table 4, Insulin 10^−8 mM, control 52.44 ± 4.58): 71.90 ± 4.89 nmol/min/mg
GLYCOGEN FORMATION 1st Set (cells; Table Five, Insulin 10^−7 M): 186.52 nmol/min/mg
GLYCOGEN FORMATION 2nd Set (cells; Table Five, Insulin 10^−7 M): 179.88 nmol/min/mg
GLYCOGEN FORMATION 3rd Set (cells; Table Five, Insulin 10^−7 M): 79.32 nmol/min/mg
GLYCOGEN FORMATION 4th Set (cells; Table Five, Insulin 10^−7 M): 167.44 nmol/min/mg
GLYCOGEN FORMATION 5th Set (cells; Table Five, Insulin 10^−7 M): 136.35 nmol/min/mg
GLYCOGEN FORMATION Average (cells; Table Five, Insulin 10^−7 M, control 130.18 ± 20.87): 149.90 ± 43.91 nmol/min/mg
